Data on 19 molecules can be found in patent publication US20180237441A1, “Chemical Compounds” (GlaxoSmithKline Intellectual Property (No.2) Limited, priority 2015, published 2018).

SMILES strings stand for the structures. Read-outs that look alike come from different tables or passages of the source.

The assay concerns the target T1, PERK (Homo sapiens, UniProt Q9NZJ5).
T1 sequence (Q9NZJ5 30-1116): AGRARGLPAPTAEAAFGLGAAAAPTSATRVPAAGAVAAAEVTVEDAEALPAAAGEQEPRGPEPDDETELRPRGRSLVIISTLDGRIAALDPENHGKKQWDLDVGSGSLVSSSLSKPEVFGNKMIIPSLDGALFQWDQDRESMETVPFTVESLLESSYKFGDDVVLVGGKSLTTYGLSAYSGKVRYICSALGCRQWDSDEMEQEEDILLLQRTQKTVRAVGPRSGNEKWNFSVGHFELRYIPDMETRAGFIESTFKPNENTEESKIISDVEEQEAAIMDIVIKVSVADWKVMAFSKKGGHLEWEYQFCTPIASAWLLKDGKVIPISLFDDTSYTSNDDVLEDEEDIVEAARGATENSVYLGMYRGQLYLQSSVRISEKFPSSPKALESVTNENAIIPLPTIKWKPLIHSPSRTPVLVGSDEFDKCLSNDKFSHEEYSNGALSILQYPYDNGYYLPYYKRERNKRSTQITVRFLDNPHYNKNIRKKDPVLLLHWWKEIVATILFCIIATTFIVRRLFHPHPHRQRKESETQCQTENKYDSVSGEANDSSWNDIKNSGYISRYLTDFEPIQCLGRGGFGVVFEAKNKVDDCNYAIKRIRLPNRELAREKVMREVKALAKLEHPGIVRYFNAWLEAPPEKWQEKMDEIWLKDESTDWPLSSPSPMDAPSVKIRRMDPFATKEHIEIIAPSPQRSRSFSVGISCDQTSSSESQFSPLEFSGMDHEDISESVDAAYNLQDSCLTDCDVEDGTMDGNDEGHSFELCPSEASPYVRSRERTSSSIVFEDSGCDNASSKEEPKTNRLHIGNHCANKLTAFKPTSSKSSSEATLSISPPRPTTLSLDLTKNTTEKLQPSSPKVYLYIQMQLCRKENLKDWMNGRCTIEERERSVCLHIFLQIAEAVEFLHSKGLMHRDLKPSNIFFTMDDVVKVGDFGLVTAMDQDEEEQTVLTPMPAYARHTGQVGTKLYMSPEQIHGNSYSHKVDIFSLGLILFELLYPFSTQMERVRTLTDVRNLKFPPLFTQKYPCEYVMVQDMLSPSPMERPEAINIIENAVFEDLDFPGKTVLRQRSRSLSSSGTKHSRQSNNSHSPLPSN
The assay is described as follows: PERK enzyme assay (HTRF). The format is biochemical. The following applies: at least one experimental run. On the procedure: Compounds of the invention were assayed for PERK enzyme inhibitory activity with modifications to previously reported conditions (Axten et al. J. Med. Chem., 2012, 55, 7193-7207). Briefly, various concentrations of compounds (maximum 1% DMSO) were dispensed into 384-well plates containing GST-PERK enzyme. After 30-60 minutes of compound pre-incubation, ATP and biotin-eIF2α were added and after 60 minutes the reaction was quenched. After 2 hrs, a fluorescence plate reader was used to measure inhibition and IC50s were calculated.
Enzyme Assay Protocol for PKR-Like Endoplasmic Reticulum Kinase (PERK)—HTRF —% Inhibition
Assay Buffer contains HEPES (pH7.5) 10 mM, CHAPS 2 mM, MgCl2 5 mM and DTT 1 mM in water
Detection Buffer contains HEPES (pH7.5) 10 mM and CHAPS 2 mM in water Assay Plate Preparation:
1. Enzyme Preparation: • 4× Enzyme solution was prepared immediately prior to adding to compound plates. • 3 nM of GST-PERK in Assay buffer. Final [PERK] in 10 μl assay volume=0.75 nM
2. Substrate Preparation: • 4× Substrate solution was prepared immediately prior to adding to compound plates. • 4× Substrate solution in assay buffer 2000 μM ATP and 160 nM Biotin-eIF2α • Final [ATP] in 10 μl assay volume=500 μM • Final [biotin-eIF2a] in 10 μl assay volume=40 nM.
3. Quench/Detection Solution: • 16 nM eIF2 Phospho-Antibody • 16 nM Eu anti-Rabbit IgG • 160 nM Streptavidin-APC • 60 mM EDTA • Final concentration in 10 μL assay volume: 4 nM eIF2 Phospho-Antibody, 4 nM Eu anti-Rabbit IgG 40 nM Streptavidin-APC
The activity of compounds in the PERK enzyme assay was determined at PERK Enzyme (500 μM ATP) IC50 (nM).
(In general: TR-FRET usually uses a lanthanide donor and a delayed reading to cut background.)

Where [1] appears, read: PERK Enzyme (500 μM ATP) IC50, read-out: PERK Activity.
[2] abbreviates: 500 μM ATP, read-out: PERK Enzyme (500 μM ATP) IC50.

For the molecule `Cc1nc(N)c2c(-c3ccc(N4CC(c5ccc(F)cc5F)N(C)C4=O)cc3F)nn(C)c2n1` (single isomer, unassigned) [Example 12, 1-(4-(4-amino-1,6-dimethyl-1H-pyrazolo[3,4-d]pyrimidin-3-yl)-3-fluorophenyl)-4-(2,4-difluorophenyl)-3-methylimidazolidin-2-one], under setting [1], the IC50 is less than 0.1 µM.

With `Cc1nc(N)c2c(-c3ccc(N4CC(c5cc(F)ccc5F)N(C)C4=O)cc3F)cn(C)c2n1` (single isomer, unassigned) [Example 38, 1-(4-(4-amino-2,7-dimethyl-7H-pyrrolo[2,3-d]pyrimidin-5-yl)-3-fluorophenyl)-4-(2,5-difluorophenyl)-3-methylimidazolidin-2-one], the IC50 under setting [1] was more than 1 µM.

`Cc1nc(N)c2c(-c3ccc(N4CC(c5ccc(F)c(F)c5)N(C)C4=O)cc3F)cn(C)c2n1` (single isomer, unassigned) [Example 80, 1-(4-(4-amino-2,7-dimethyl-7H-pyrrolo[2,3-d]pyrimidin-5-yl)-3-fluorophenyl)-4-(3,4-difluorophenyl)-3-methylimidazolidin-2-one]: the IC50 under setting [1] was less than 0.1 µM.

As to `CN1C(=O)N(c2ccc(-c3cn(C)c4ncnc(N)c34)c(F)c2)CC1c1ccc(F)cc1` (single isomer, unassigned) [Example 59, 1-(4-(4-amino-7-methyl-7H-pyrrolo[2,3-d]pyrimidin-5-yl)-3-fluorophenyl)-4-(4-fluorophenyl)-3-methylimidazolidin-2-one], the IC50 by setting is: under setting [2], 0.0039 µM; under setting [1], less than 0.1 µM.

As for `CN1C(=O)N(c2ccc(-c3cn(C)c4ncnc(N)c34)c(F)c2)CC1c1ccc(F)c(Cl)c1` (single isomer, unassigned) [Example 133, 1-(4-(4-amino-7-methyl-7H-pyrrolo[2,3-d]pyrimidin-5-yl)-3-fluorophenyl)-4-(3-chloro-4-fluorophenyl)-3-methylimidazolidin-2-one], under setting [1], the IC50 is less than 0.1 µM.

In the case of `CN1C(=O)N(c2ccc(-c3cn(C)c4ncnc(N)c34)c(F)c2)CC1c1ccc(F)cc1F` (centres unmarked) [Example 24, 1-(4-(4-amino-7-methyl-7H-pyrrolo[2,3-d]pyrimidin-5-yl)-3-fluorophenyl)-4-(2,4-difluorophenyl)-3-methylimidazolidin-2-one], the IC50 under setting [1] is 0.1 to 1 µM.

As to `CN1C(=O)N(c2ccc(-c3cn(C4CC4)c4ncnc(N)c34)c(F)c2)CC1c1ccc(F)cc1F` (single isomer, unassigned) [Example 154, 1-(4-(4-amino-7-cyclopropyl-7H-pyrrolo[2,3-d]pyrimidin-5-yl)-3-fluorophenyl)-4-(2,4-difluorophenyl)-3-methylimidazolidin-2-one], the IC50 was 0.988 µM under setting [2] and 0.1 to 1 µM under setting [1].

Regarding `Cn1cc(-c2ccc(N3CC(c4ccc(F)cc4F)CC3=O)cc2F)c2c(N)ncnc21` (centres unmarked) [Example 34, 1-(4-(4-amino-7-methyl-7H-pyrrolo[2,3-d]pyrimidin-5-yl)-3-fluorophenyl)-4-(2,4-difluorophenyl)pyrrolidin-2-one], the IC50 under setting [1] was 0.1 to 1 µM.

In the case of `CCN1C(=O)N(c2ccc(-c3cn(C)c4ncnc(N)c34)c(F)c2)CC1c1ccc(F)cc1F` (centres unmarked) [Example 23, 1-(4-(4-amino-7-methyl-7H-pyrrolo[2,3-d]pyrimidin-5-yl)-3-fluorophenyl)-4-(2,4-difluorophenyl)-3-ethylimidazolidin-2-one], the IC50 under setting [1] is 0.1 to 1 µM.

On to `Cc1nc(N)c2c(-c3ccc(N4CC(c5c(F)cc(F)cc5F)N(C)C4=O)cc3F)cn(C)c2n1` (single isomer, unassigned) [Example 71, 1-(4-(4-amino-2,7-dimethyl-7H-pyrrolo[2,3-d]pyrimidin-5-yl)-3-fluorophenyl)-3-methyl-4-(2,4,6-trifluorophenyl)imidazolidin-2-one], for which the IC50 under setting [1] fell in the range of 0.1 to 1 µM.

For the molecule `CCN1C(=O)N(c2ccc(-c3cn(C)c4ncnc(N)c34)c(F)c2)CC1c1cccc(C)c1` (centres unmarked) [Example 36, 1-(4-(4-amino-7-methyl-7H-pyrrolo[2,3-d]pyrimidin-5-yl)-3-fluorophenyl)-3-ethyl-4-(m-tolyl)imidazolidin-2-one], the IC50 by setting is: under setting [2], 0.462 µM; under setting [1], 0.1 to 1 µM.

`CN1C(=O)N(c2ccc(-c3cn(C4CC4)c4ncnc(N)c34)c(F)c2)CC1c1cc(F)ccc1F` (single isomer, unassigned) [Example 145, 1-(4-(4-amino-7-cyclopropyl-7H-pyrrolo[2,3-d]pyrimidin-5-yl)-3-fluorophenyl)-4-(2,5-difluorophenyl)-3-methylimidazolidin-2-one]: the IC50 under setting [1] is less than 0.1 µM.

Take `CCN1C(=O)N(c2ccc(-c3c(C)n(C)c4ncnc(N)c34)c(F)c2)CC1c1ccc(F)cc1F` (centres unmarked) [Example 93, 1-(4-(4-amino-6,7-dimethyl-7H-pyrrolo[2,3-d]pyrimidin-5-yl)-3-fluorophenyl)-4-(2,4-difluorophenyl)-3-ethylimidazolidin-2-one]: under setting [1], the IC50 lay within 0.1 to 1 µM.

In the case of `CN1C(=O)N(c2ccc(-c3cn(C4CC4)c4ncnc(N)c34)c(F)c2)CC1c1cc(F)cc(F)c1` (racemic) [Example 175, 1-(4-(4-amino-7-cyclopropyl-7H-pvrrolo[2,3-d]pyrimidin-5-yl)-3-fluorophenyl)-4-(3,5-difluorophenyl)-3-methylimidazolidin-2-one], the IC50 under setting [1] is less than 0.1 µM.

Consider `CN1C(=O)N(c2ccc(-c3cn(C)c4ncnc(N)c34)c(F)c2)CC1c1cc(F)cc(F)c1F` (single isomer, unassigned) [Example 140, 1-(4-(4-amino-7-methyl-7H-pyrrolo[2,3-d]pyrimidin-5-yl)-3-fluorophenyl)-3-methyl-4-(2,3,5-trifluorophenyl)imidazolidin-2-one], for which the IC50 under setting [1] is less than 0.1 µM.

`CCN1C(=O)N(c2ccc(-c3cn(C)c4nc(C)nc(N)c34)c(F)c2)CC1c1cc(F)ccc1F` (single isomer, unassigned) [Example 45, 1-(4-(4-amino-2,7-dimethyl-7H-pyrrolo[2,3-d]pyrimidin-5-yl)-3-fluorophenyl)-4-(2,5-difluorophenyl)-3-ethylimidazolidin-2-one]: the IC50 under setting [1] is more than 1 µM.

As for `CN1C(=O)N(c2ccc(-c3cn(C4CC4)c4ncnc(N)c34)c(F)c2)CC1c1ccc(F)cc1F` (single isomer, unassigned) [Example 155, 1-(4-(4-amino-7-cyclopropyl-7H-pyrrolo[2,3-d]pyrimidin-5-yl)-3-fluorophenyl)-4-(2,4-difluorophenyl)-3-methylimidazolidin-2-one], the IC50 under setting [1] is less than 0.1 µM.

On to `Cn1cc(-c2ccc(N3CC(c4cc(F)cc(F)c4)CC3=O)nc2)c2c(N)ncnc21` (centres unmarked) [Example 32, 1-(5-(4-amino-7-methyl-7H-pyrrolo[2,3-d]pyrimidin-5-yl)pyridin-2-yl)-4-(3,5-difluorophenyl)pyrrolidin-2-one], for which, under setting [1], the IC50 fell in the range of 0.1 to 1 µM.

Take `CN1C(=O)N(c2ccc(-c3cn(C)c4ncnc(N)c34)c(F)c2)CC1c1ccncc1` (centres unmarked) [Example 110, 1-(4-(4-amino-7-methyl-7H-pyrrolo[2,3-d]pyrimidin-5-yl)-3-fluorophenyl)-3-methyl-4-(pyridin-4-yl)imidazolidin-2-one]: the IC50 is 1.98 µM under setting [2] and more than 1 µM under setting [1].
